Results taken from publication PMC8507260, “A2E-induced inflammation and angiogenesis in RPE cells in vitro are modulated by PPAR-α, -β/δ, -γ, and RXR antagonists and by norbixin” (Aging (Albany NY), 2021).

Key:
CCL2 = CCL2 mRNA expression by quantitative RT-PCR in porcine RPE cells; format: cell-based
Description: (§1) Pig eyes were obtained from a local slaughterhouse and transported to the laboratory in ice-cold Ringer solution. After removal of the anterior segment of the eye, the vitreous and neural retina was separated from the RPE and removed. The eyecup was washed twice with phosphate buffer saline (PBS), filled with trypsin (0.25% in PBS) and incubated at 37°C for 1.5 h. RPE cells were harvested by gently pipetting, centrifuged to remove trypsin and re-suspended in Dulbecco’s Modified Eagle Medium (DMEM) supplemented with 20% (v/v) foetal-calf serum (DMEM20%FCS) and 0.1% gentamycin. Cells were seeded into 60 mm diameter Petri dishes, cultured in an atmosphere of 5% CO2/95% air at 37°C, and supplied with fresh medium after 24 hours and 4 days in vitro. For experiments aimed at measuring mRNA or protein expression in RPE, cells were trypsinized after one week in culture and transferred to 24-well or 6-well plates at a density of 1.5 × 10^5 cells/cm^2 in DMEM2%FCS. Norbixin or agonists were added to the medium 24 h after seeding, and antagonists were added to the medium 24 h later. A2E treatment was performed during 19 h before cellular sample preparation. […]
(§2) Total RNA was extracted using the NucleoSpin® RNA kit according to manufacturer’s instructions. […] The relative mRNA expression was calculated using the comparative threshold method (Ct-method) with GAPDH for normalization. […]

MMP9 = MMP9 mRNA expression by quantitative RT-PCR in porcine RPE cells; format: cell-based
Description: as §1, §2

PPAR-γ = molecular target: T1, PPAR-γ (Homo sapiens, UniProt P37231); test: Transactivation of over-expressed PPAR-γ, luciferase reporter in porcine RPE cells; format: cell-based, pig; design: a plasmid expressing each of the full-length PPAR isoforms; host or cells: primary porcine RPE cells; conditions: for inhibition of PPAR-γ transactivation induced by TGZ: NBX 20 μM; for transactivation of over-expressed PPAR-γ by the compound alone: vs DMSO control, A2E 20 μM, NBX increasing concentrations
T1 sequence (P37231 1-505): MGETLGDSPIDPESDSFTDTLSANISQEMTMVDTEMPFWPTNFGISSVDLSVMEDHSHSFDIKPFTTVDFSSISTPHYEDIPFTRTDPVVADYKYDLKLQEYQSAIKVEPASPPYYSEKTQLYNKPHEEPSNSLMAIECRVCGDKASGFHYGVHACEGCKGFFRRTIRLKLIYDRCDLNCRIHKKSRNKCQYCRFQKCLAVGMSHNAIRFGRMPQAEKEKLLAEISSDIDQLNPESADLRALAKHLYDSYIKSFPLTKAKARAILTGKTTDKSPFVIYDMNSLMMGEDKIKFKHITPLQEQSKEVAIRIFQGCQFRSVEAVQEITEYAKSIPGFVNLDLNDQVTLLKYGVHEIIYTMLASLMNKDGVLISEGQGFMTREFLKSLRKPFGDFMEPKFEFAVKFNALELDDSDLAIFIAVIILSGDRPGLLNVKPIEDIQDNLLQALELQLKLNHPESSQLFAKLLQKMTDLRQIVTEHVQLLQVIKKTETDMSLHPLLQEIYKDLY
Description: Then the effects of A2E on the endogenous PPAR transactivation in porcine RPE cells were investigated by means of a luciferase assay. […] The level of transactivation of PPAR-α, -β/δ, or -γ isoforms by A2E was determined by co-transfection of porcine RPE cells with a plasmid expressing each of the full-length PPAR isoforms and a plasmid expressing luciferase under the control of the PPAR response element. […] All usual chemicals, primers, and HX531 were from Sigma (St. Louis, MO, USA). Reagents for cell culture, transfection and quantitative RT-PCR were from Thermo Fisher Scientific (Waltham, MA, USA). RNA extraction NucleoSpin® RNA kit was from Macherey Nagel (Düren, Germany). ECL prime and PVDF membrane were from Amersham GE Healthcare (Buckinghamshire, UK). Primary antibodies against the following proteins were used: GAPDH (Santa Cruz Biotechnology, Inc, Dallas, TX, USA); pAKT, AKT, pERK and ERK (Cell Signaling, Danvers, MA, USA). Secondary antibodies were from Jackson ImmunoResearch (Cambridgeshire, UK). […] Cignal Pathway Reporter Assay Kits were from QIAGEN (Frederick, MD, USA). The Dual-Luciferase Reporter Assay System was purchased from Promega (Madison, WI, USA). pcDNA 3.1 (+)-PPARα and pcDNA 3.1 (+)-PPARβ/δ (pig sequence) were purchased from Genscript (Piscataway, NJ, USA). pCMV6-XL4-PPARγ (human sequence) was purchased from Origene (Rockville, MD, USA).
After one week in culture, cells were trypsinized and transferred to a 96-well plate at a density of 6 × 10^4 cells/cm^2 in DMEM2%FCS. The next day, cells were transfected using the Cignal Reporter Assay Kits for PPAR, RXR, AP-1 and NF-κB, according to the manufacturer’s specifications. To measure the specific activation of PPAR isoforms, cells were also co-transfected with PPAR-α, PPAR-β/δ or PPAR-γ expression vectors. Transfection was performed with Lipofectamine and Plus Reagent in serum-free medium. 3 h after the transfection, the medium was replaced and treatments with the molecules to assay were performed. Luciferase activity was measured the next day using the Dual-Luciferase Reporter Assay System. The measurements were performed with a luminometer (Infinite M1000 from Tecan, Mannedorf, Switzerland). Firefly: Renilla activity ratios were calculated for each condition and ratios from transcription factor-responsive reporter transfections were divided by ratios from negative control transfections to obtain relative luciferase unit, as described by the manufacturer. At least 3 independent transfections were performed in triplicate for each condition.

AKT = AKT phosphorylation by western blot in primary porcine RPE cells; format: cell-based
Description: as §1, with “DMEM2%FCS.” for “DMEM2%FCS. Norbixin or agonists were added to the medium 24 h after seeding, and antagonists were added to the medium 24 h later. A2E treatment was performed during 19 h before cellular sample preparation.”
RPE samples were lysed in 20 mM Tris-HCl, 150 mM NaCl, 1 mM EDTA, 1% NP-40, pH 7.5 buffer containing a cocktail of protease and phosphatase inhibitors. […] The signal was developed using enhanced chemiluminescence reagents (ECL) prime detection kit, quantified by densitometry using Bio1D (Vilber Lourmat, Germany) and normalized by GAPDH levels. […]

VEGF = VEGF mRNA expression by quantitative RT-PCR in porcine RPE cells; format: cell-based
Description: Pig eyes were obtained from a local slaughterhouse and transported to the laboratory in ice-cold Ringer solution. After removal of the anterior segment of the eye, the vitreous and neural retina was separated from the RPE and removed. The eyecup was washed twice with phosphate buffer saline (PBS), filled with trypsin (0.25% in PBS) and incubated at 37°C for 1.5 h. RPE cells were harvested by gently pipetting, centrifuged to remove trypsin and re-suspended in Dulbecco’s Modified Eagle Medium (DMEM) supplemented with 20% (v/v) foetal-calf serum (DMEM20%FCS) and 0.1% gentamycin. Cells were seeded into 60 mm diameter Petri dishes, cultured in an atmosphere of 5% CO2/95% air at 37°C, and supplied with fresh medium after 24 hours and 4 days in vitro. For experiments aimed at measuring mRNA or protein expression in RPE, cells were trypsinized after one week in culture and transferred to 24-well or 6-well plates at a density of 1.5 × 10^5 cells/cm^2 in DMEM2%FCS. Norbixin or agonists were added to the medium 24 h after seeding, and antagonists were added to the medium 24 h later. A2E treatment was performed during 19 h before cellular sample preparation. All the drugs used in these experiments were prepared as stock solutions in DMSO.
Total RNA was extracted using the NucleoSpin® RNA kit according to manufacturer’s instructions. RT of 500 ng of RNA was performed using the SuperScript III Reverse Transcriptase following the manufacturer’s instructions. Five ng of cDNA were amplified using the SYBR GREEN real-time PCR method. PCR primers for target genes and housekeeping gene GAPDH were designed using Primer3Plus Bioinformatic software (Table 2). The RT-PCR using the StepOne Plus (Life Technologies, Carlsbad, CA, USA) consisted of incubation at 50°C for 5 min followed by 40 cycles of 95°C for 15 s and of 60°C for 1 min. The reaction was completed by a melt curve stage at 95°C for 15 s, 60°C for 1 min, 95°C for 15 s and a final step at 60°C for 15 s. The relative mRNA expression was calculated using the comparative threshold method (Ct-method) with GAPDH for normalization. […]

Row | Compound | effect on CCL2 mRNA expression induced by A2E (CCL2; NBX 20 μM + A2E 30 μM) | effect on MMP9 mRNA expression in the absence or presence of A2E (MMP9; NBX 20 μM, A2E 30 μM) | inhibition of PPAR-γ transactivation induced by TGZ (PPAR-γ; 1 μM of TGZ) | effect on over-expressed PPAR-γ transactivation induced by A2E (PPAR-γ; A2E 20 μM + NBX 20 μM) | inhibition of PPAR-γ transactivation induced by TGZ (PPAR-γ; TGZ 10 μM) | transactivation of over-expressed PPAR-γ by the compound alone (PPAR-γ) | effect on the increase of AKT phosphorylation induced by A2E (AKT; NBX 20 μM + A2E 30 μM) | effect on VEGF mRNA expression induced by A2E (VEGF; NBX 20 μM with A2E 30 μM, MK886 1 μM, GSK3787 1 μM, T007907 10 μM, alone or as mixture, with A2E 20 μM) | effect of the compound alone on CCL2 mRNA expression (CCL2; A2E 30 μM vs DMSO control) | effect of the compound alone on MMP9 mRNA expression (MMP9; A2E 30 μM vs DMSO control) | effect of the compound alone on AKT phosphorylation (AKT; A2E 30 μM vs DMSO control) | enhancement of VEGF mRNA expression by the compound alone (VEGF; A2E 30 μM vs DMSO control)
1 | CC(/C=C/C=C(C)/C=C/C(=O)O)=C\C=C\C=C(C)\C=C\C=C(C)\C=C\C(=O)O (stereo in doubt) [norbixin, 9’-cis-norbixin] | further increased | slightly, but significantly, increased | partially inhibited | fully abolished | this effect was lost | did not demonstrate any transactivation activity | abrogated completely | significantly inhibited | – | – | – | –
2 | CC(C=CC1=C(C)CCCC1(C)C)=CC=CC(C)=Cc1cc(C=CC=C(C)C=CC2=C(C)CCCC2(C)C)cc[n+]1CCO [A2E, N-retinylidene-N-retinylethanolamine] | – | – | – | – | – | induced the transactivation | – | – | up-regulated | reduced the expression | induced the phosphorylation | approximately 9 fold
